# Measured values published in patent US20240197869A1, “HYPERACTIVATORS OF MAMMALIAN DENDRITIC CELLS” (Corner Therapeutics, Inc., priority 2021, published 2024).
# Entries after “also recorded” stand apart in the source; their conditions may differ. Like-named read-outs stand apart in the source and are kept apart here.
# Tests used:
# Type in all cases: cell-based
# [1] = PAMP screen: viability of human moDCs with PRR agonist and 22:0 Lyso PC; details: human, human monocyte-derived dendritic cells (moDCs), No PAMP, 20 μM 22:0 Lyso PC alone, human moDCs, read-out: Relative Viability (%) ± SD
# Protocol: Pathogen-Associated Molecular Pattern (PAMP) Screen. Innate immune signaling pathway agonists were purchased from Invivogen. Lyophilized stocks were reconstituted and stored according to manufacturer's instructions and at recommended concentrations. […] Innate immune signaling agonists were diluted in R10 media to the manufacturer's recommended working concentration and then added onto cells. 22:0 Lyso PC was then reconstituted from a lyophilized stock in R10 and then further diluted. The lipid was added onto cells at a final concentration of 20 μM. Cells were incubated for 2 days, then cultures were collected for endpoint analyses.
# (§1) Quantification of Cell Viability.
# human PBMCs = assay: Cytokine secretion (IL-1β, IFNγ, TNFα) by human PBMCs
# Protocol: (§2) Isolation of PBMCs from Whole Blood. PBMCs were isolated from whole blood using density gradient centrifugation with Ficoll-Paque PLUS (Cytivia). Whole blood was diluted 1:1 with PBS, layered on top of Ficoll-Paque PLUS and centrifuged at 1000×g for 30 minutes at room temperature. PBMCs were collected, washed twice in PBS, and incubated with Ack lysis buffer (Lonza) to remove any remaining red blood cells.
# (§3) Cell Culture and Stimulation. […] Cells were plated at 1×10^5 (canine cells) or 1×10^6 (human cells) per well in 96-well flat bottom tissue culture plates. Lyophilized Vaccigrade R848 (Invivogen) was reconstituted and diluted according to manufacturer's recommendations and added to cells at a final concentration of 1 μg/mL.
# Quantification of Cytokine Secretion. IL-1β secretion from human PBMCs was assessed using one of the following kits: ELISA MAX Deluxe Set Human IL-1β kit (Biolegend), Invitrogen Human IL-1β kit, or the Lumit™ Human IL-1β Immunoassay (Promega). IFNγ secretion from human PBMCs was assessed using the ELISA MAX Deluxe Set Human IFNγ (Biolegend) and TNFα secretion from human PBMCs was assessed using the Human TNFα Uncoated ELISA kit (Invitrogen). ELISAs were performed according to manufacturer's instructions with the following modifications: i) total sample+buffer volume for incubation was reduced from 100 μL to 50 μL; ii) the top standard was prepared at […], with two-fold dilutions to […]; and iii) sample incubation was completed overnight at 4 C on an orbital shaker. Lumit™ assays were performed according to manufacturer's instructions. IL-1β secretion from canine PBMCs was assessed using the Canine IL-1β/IL-1F2 DuoSet ELISA (R&D) according to manufacturer's instructions with the following modifications: i) total sample+buffer volume for incubation was reduced from 100 μL to 50 μL; ii) sample incubation was completed overnight at 4° C. on an orbital shaker. For all ELISAs, absorbance was measured at 450 nm, with a 570 nm correction, using a Spectramax M5e plate reader (Molecular Devices). For Lumit™ assays, luminescence was measured on all wavelengths using a Spectramax M5e plate reader (Molecular Devices) with an integration time of 500 ms. To determine cytokine concentrations in supernatants, sample concentrations were interpolated using a standard curve via 4PL analysis on GraphPad Prism 9 (GraphPad Software). The interpolated results of samples were then adjusted for any dilutions made to the supernatant.
# [2] = system: human monocyte-derived dendritic cells (moDCs); assay: DAMP screen: IL-1β secretion by LPS-activated human moDCs (ELISA)
# [3] = system: human memory CD4+ T cells; assay: Human moDC coculture with memory CD4 T cells: cytokine secretion; details: moDC treated with R848 + lipid; limiting anti-CD3; 2 days after T cell addition
# Source text: Human moDC coculture with memory CD4 T cells. Human monocytes were isolated from leukopheresis products using Miltenyi StraightFrom LeukoPak CD14 microbeads as directed by manufacturer. Custom PBMC isolation microbead kits from Miltenyi were used to separate PBMCs from red blood cells and granulocytes from the same blood products. After PBMC purification, Miltenyi human memory CD4+ T cell isolation kits were used to negatively select the CD45RO+ fraction. Cells were cryogenically stored until ready for use in experiments.
# Human monocytes were differentiated into dendritic cells as previously described using recombinant human GM-CSF and IL-4 for 6 days. moDCs were plated in R10 media at 5E4 cells/well into 96-well U-bottom microplates for hyperactivations. […] T cell stimulating anti-CD3 antibody was added into the culture (with or without blocking anti-IL-1beta antibody) prior to T cell addition. Autologous frozen memory CD4 T cells were thawed, resuspended in R10 media and added at 2.5×10^5 cells/well (ratio 1:5, DC:T cell). After two days incubation, cell culture supernatant was collected and used for measuring cytokine secretion. Commercially available kits such as Biolegend LegendPlex kits were used as directed by manufacturer's protocol to quantify cytokines of interest.
# Four donors were tested with each experimental condition tested in triplicate. […]
# [4] = system: canine peripheral blood mononuclear cells (PBMCs); assay: Viability of canine PBMCs (CellTiter-Glo); details: lipid combined with R848, 2 days, relative to R848 alone
# Protocol: as §2, §3, §1
# [5] = lipid combined with R848, 2 days
smiles,measurement,setting,value
"CCCCCCCCCCCCCCCCCCCCCC(=O)OC[C@@H](O)COP(=O)([O-])OCC[N+](C)(C)C [22:0 LYSO PC, 1-behenoyl-2-hydroxy-sn-glycero-3-phosphocholine]","viability at 2 days, 20 μM","[1]; Table 1-7, 10 donors",120%
same,"viability at 2 days, 20 μM",[1]; Table 1-8,120%
same,IL-1β secretion (in words),"human PBMCs; lipid 82.5 μM combined with R848 1 μg/mL, 2 days",elevated; also recorded: comparable or higher
same,"IFNγ secretion, fold change per donor relative to R848 alone (in words)",human PBMCs; [5],highest fold change per donor; also recorded: comparable or higher
same,"TNFα secretion, fold change per donor relative to R848 alone (in words)",human PBMCs; [5],highest fold change per donor; also recorded: comparable or higher
same,IL-1β secretion,"[2]; 41.3 μM lipid + LPS 1 μg/mL, 2 days, Table 1-2",1904.2 pg/mL
same,IL-1β secretion,"[2]; 82.5 μM lipid + LPS, selected lipids, Table 1-3 (repeats Table 1-1)",2130.9 pg/mL
same,IFN-gamma (Th1 response) from cocultured memory CD4 T cells (in words),[3],significantly stronger Th1 response
same,relative cell viability (in words),[4],remain viable
same,relative cell viability (in words),[4]; listed as 22:0 LYSO,did not significantly reduce relative cell viability
